The record followed here is BindingDB's records for doi:10.1016/j.bmcl.2007.01.077 (Yale University, 2007).

Assay [1] has as its target T1, Signal transducer and activator of transcription 1-alpha/beta (Homo sapiens, UniProt P42224).
T1 sequence (P42224 whole entry): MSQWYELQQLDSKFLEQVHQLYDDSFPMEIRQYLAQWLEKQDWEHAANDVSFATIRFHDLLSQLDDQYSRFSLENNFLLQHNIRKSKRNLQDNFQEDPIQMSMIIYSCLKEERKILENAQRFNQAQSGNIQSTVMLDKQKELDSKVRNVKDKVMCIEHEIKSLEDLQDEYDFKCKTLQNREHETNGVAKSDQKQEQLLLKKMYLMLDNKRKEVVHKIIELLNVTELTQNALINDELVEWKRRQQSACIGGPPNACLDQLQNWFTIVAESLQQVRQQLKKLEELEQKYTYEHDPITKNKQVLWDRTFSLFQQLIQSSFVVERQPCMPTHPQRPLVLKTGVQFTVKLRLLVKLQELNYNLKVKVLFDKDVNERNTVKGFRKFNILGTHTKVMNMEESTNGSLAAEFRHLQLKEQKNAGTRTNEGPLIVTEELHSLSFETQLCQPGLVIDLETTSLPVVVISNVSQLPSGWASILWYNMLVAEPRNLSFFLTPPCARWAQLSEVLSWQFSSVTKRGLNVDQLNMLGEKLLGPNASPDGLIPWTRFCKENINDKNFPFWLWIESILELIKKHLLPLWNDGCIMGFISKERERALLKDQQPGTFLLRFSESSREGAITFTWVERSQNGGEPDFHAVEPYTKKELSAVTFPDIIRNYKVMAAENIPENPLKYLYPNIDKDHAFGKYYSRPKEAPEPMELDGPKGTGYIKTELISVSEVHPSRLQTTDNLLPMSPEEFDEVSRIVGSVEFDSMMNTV
The assay can be described thus: Electrophoretic Mobility Shift Assay (EMSA). To be noted: pH 7.8; 22 °C. The procedure: (§1) STAT proteins were expressed in Sf9 cells from a baculovirus encoding the recombinant protein. A nuclear extract of the Sf9 cells was incubated with 32P-labeled high affinity c-fos sis inducible element (hSIE) either alone or in the presence of inhibitor. After incubation, samples were electrophoresed on polyacrylamide gels. The gels were dried, exposed to a phosphorimager screen and scanned. IC50 values were derived from plots of spot intensity versus phosphopeptide concentration. The affinity of peptides to the SH2 domain is measured by the intensity of the radioactivity of the Stat-DNA complex band in the electrophoresis gel.

The target in assay [2] is Signal transducer and activator of transcription 3 (Mus musculus, UniProt P42227). The assay can be described thus: Electrophoretic Mobility Shift Assay (EMSA). To be noted: pH 7.8; 22 °C. On the procedure:
as §1

Chain of Signal transducer and activator of transcription 3 (P42227 whole entry): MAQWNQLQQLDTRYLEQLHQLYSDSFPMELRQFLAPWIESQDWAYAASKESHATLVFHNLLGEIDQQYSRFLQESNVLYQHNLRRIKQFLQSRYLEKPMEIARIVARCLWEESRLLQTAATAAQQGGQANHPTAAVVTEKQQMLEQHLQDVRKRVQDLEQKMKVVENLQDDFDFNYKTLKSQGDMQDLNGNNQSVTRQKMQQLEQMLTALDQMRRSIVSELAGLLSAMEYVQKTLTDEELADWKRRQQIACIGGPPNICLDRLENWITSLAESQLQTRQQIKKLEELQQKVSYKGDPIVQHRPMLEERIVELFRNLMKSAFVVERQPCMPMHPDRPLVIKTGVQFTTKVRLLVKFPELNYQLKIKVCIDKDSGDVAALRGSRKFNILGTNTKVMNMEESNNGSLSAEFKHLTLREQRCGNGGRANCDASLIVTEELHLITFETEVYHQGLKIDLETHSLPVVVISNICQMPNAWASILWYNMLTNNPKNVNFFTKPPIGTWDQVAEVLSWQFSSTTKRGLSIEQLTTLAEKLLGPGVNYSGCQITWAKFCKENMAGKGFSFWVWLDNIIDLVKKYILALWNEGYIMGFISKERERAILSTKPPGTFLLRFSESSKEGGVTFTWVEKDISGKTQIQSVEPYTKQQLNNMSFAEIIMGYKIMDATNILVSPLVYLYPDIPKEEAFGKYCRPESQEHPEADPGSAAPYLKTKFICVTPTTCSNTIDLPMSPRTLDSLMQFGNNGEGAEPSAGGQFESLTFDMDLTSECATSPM

Consider `CC(C)C[C@H](NC(=O)[C@H](Cc1ccc(OP(=O)(O)O)cc1)NC(=O)c1ccc(C#N)cc1)C(=O)NC(C)C` [4-[(2S)-2-[(4-cyanophenyl)formamido]-2-{[(1S)-3-methyl-1-(propan-2-ylcarbamoyl)butyl]carbamoyl}ethyl]phenoxyphosphonic acid], for which the IC50 in assay [1] is 58 µM; in assay [2] it was 760 µM.
